Like-named read-outs stand apart in the source and are kept apart here. Square brackets hold non-standard residues; d marks the D form. Ends that are not written are not given here. Peptide text beside a SMILES is read from it. Aad = N[C@@H](CCCC(=O)O)C(=O)O; Sec = N[C@@H](C[SeH])C(=O)O; Nle = CCCC[C@H](N)C(=O)O
Experiments:
Type in all cases: biochemical
human JMJD7 [1] = target: T1, human JMJD7 (Homo sapiens, UniProt P0C870); experiment: MALDI-TOF MS JMJD7 inhibition assay
T1 construct: human JMJD7 (residues 1–316) with an N‐terminal His6‐tag; His6 (N); made in house; host or cells: Escherichia coli Rosetta (DE3)

human JMJD7 [2] = target: T1, human JMJD7; experiment: SPE-MS time-course and steady-state kinetics of JMJD7-catalyzed hydroxylation; details: for k cat/K m / k cat / K m: SPE-MS, DRG1 peptide 0.1–5.0 μM, 2OG 20 μM, FAS 10 μM, LAA 100 μM, JMJD7 100 nM; for k cat: in min^-1; for K m: in µM (unit assumed)
Description: Having shown that introduction of γ‐thialysine and γ‐azalysine residues into DRG1 peptides generates substrates that are efficiently hydroxylated by JMJD7, giving nascent products that fragment to give formylglycine, we explored whether these two peptides could compete with the DRG1‐Lys substrate for JMJD7 catalysis. The reactions of DRG1‐Lys, DRG1‐CysNH2 and DRG1‐LysN (1.0 μM) by JMJD7 (50 nM) were investigated as a function of time using SPE‐MS assays.
To quantify the relative efficiencies of DRG1‐Lys and the substrate analog DRG1‐LysE, we carried out kinetics analyses using SPE‐MS assays as the levels of JMJD7‐catalyzed hydroxylation were sufficient for these two substrates.
JMJD7 turnover assays for kinetic studies were performed in 96‐well polypropylene assay plates with 1.0 mL total reaction volume using a series of concentrations of the DRG1 peptide (0.1–5.0 μM), 2OG (20 μM), FAS (10 μM), LAA (100 μM). Reactions were initiated by the addition of JMJD7 (100 nM). MS‐analyses were performed using a RapidFire RF 365 high‐throughput sampling robot (Agilent) attached to an iFunnel Agilent 6550 accurate mass quadrupole time‐of‐flight (Q‐TOF) mass spectrometer operated in the positive ionization mode. The RapidFire RF 365 high‐throughput sampling robot was programmed to aspirate samples from the reaction mixture at the indicated time intervals. Assay samples were loaded onto a C4 solid phase extraction (SPE) cartridge and peptides were eluted using given previous protocols (Tumber et al., [2023]). The % conversion of the hydroxylation reaction were calculated from the ion chromatogram data by integrating peak areas using RapidFire Integrator 4.3.0 software (Agilent).

human JMJD7 [3] = target: T1, human JMJD7; experiment: LC-MS assay of JMJD7-catalyzed hydroxylation/oxidation of DRG1 peptides; details: for extent of hydroxylation by JMJD7 at higher 2OG concentration: 20 μM 2OG, pH 7.5, 2 h incubation; for extent of hydroxylation (+16 Da) by JMJD7: standard conditions: 2 μM JMJD7, 10 μM DRG1 peptide, Tris pH 7.5, 2 h, room temperature
Description: Initial assays were carried out by incubation of purified recombinant (Markolovic et al., [2018]) human JMJD7 (2 μM) in the presence of a DRG1 derived peptide (10 μM), 2OG (10 μM), ferrous ammonium sulfate (FAS, 10 μM), and L‐ascorbate (LAA, 100 μM) in Tris buffer at pH 7.5 for 2 h at room temperature. Potential conversion to a hydroxylated product (+16 Da mass shift) was monitored by liquid‐chromatography‐mass‐spectrometry (LC–MS). […] The assay results also implied that DRG1‐Orn was hydroxylated, but to a lower extent (~21%) than DRG1‐Lys. […] The alcohol‐containing peptide hydroxynorleucine (DRG1‐HNle), was hydroxylated at relatively low levels (~24%), implying that H‐bonding interactions and positive charge of the N^ɛ‐amino group of lysine are important for efficient binding and catalysis, but that a neutral alcohol can still be accommodated at the active site (Figure 3f) (Markolovic et al., [2018]).
All reagents were procured from Sigma Aldrich. 2‐Oxoglutarate (2OG, 10 mM) and L‐ascorbic acid (LAA, 50 mM) solutions were prepared freshly by dissolving the solids in deionized water. Ferrous ammonium sulfate (FAS) solution was prepared freshly by dissolving FAS at 400 mM in 20 mM HCl with subsequent dilution to 1 mM using deionized water. JMJD7 assays using DRG1 (16–40) based peptides were performed with the following conditions: (i) 2 or 5 μM JMJD7, 10 μM DRG1 peptide, 100 μM LAA, 10 μM FAS, 10 μM 2OG in mM 50 Tris‐buffer (pH 7.5), (ii) 2 μM JMJD7, 10 μM DRG1 peptide, 100 μM LAA, 10 μM FAS, 20 μM 2OG in mM 50 Tris‐buffer (pH 7.5). Reactions were initiated by addition of enzyme to the cosubstrate/substrate solution in a final reaction volume of 50 μL with 2 h incubation at room temperature. A positive control reaction containing enzyme and a validated peptide substrate was included in all screening studies. After 2 h, reactions were stopped by addition of 5 μL of 10% (v/v) LC–MS grade formic acid (Fisher Scientific) and transferred to a 96 well plate (Agilent). Intact mass peptide analysis was performed by LC–MS using an Agilent 1290 infinity II LC system equipped with an Agilent 1290 multisampler and an Agilent 1290 high speed pump and connected to an Agilent 6550 accurate mass iFunnel quadrupole time of flight (Q‐TOF) mass spectrometer. The reaction mixture (4 μL) was injected and loaded onto a ZORBAX RRHD Eclipse Plus C18 column (Agilent). Solvent A consisted of LC–MS grade water containing 0.1% (v/v) formic acid and solvent B consisted of MeCN containing 0.1% (v/v) formic acid. Peptides were separated using a step wise gradient (0 min – 95% solvent A, 1.0 min – 80% solvent A, 3.0 min – 45% solvent A, 4.0 min – 45% solvent A, 5.0 min – 0% solvent A, 6.0 min – 0% solvent A, 7.0 min – 95% solvent A). This was followed by a 3 min elution with 95% solvent A to re‐equilibrate the column. Flow rates were 0.2 mL/min. The mass spectrometer was operated in the positive ion mode with a drying gas temperature (280°C), drying gas flow rate (13 L min^−1), nebulizer pressure (40 psig), sheath gas temperature (350°C), sheath gas flow rate (12 L min^−1), capillary voltage (4000 V), nozzle voltage (1000 V). Data were analyzed using Agilent MassHunter Qualitative Analysis (Version B.07.00) software.

[4] = 200 nM JMJD7 preincubated 15 min with peptide (1 nM–150 μM), 5 μM DRG1-Lys (17–40) substrate, 10 μM 2OG, 25 min, room temperature, Tris pH 7.5, MALDI MS, duplicate (n = 2), ± SE, read-out: IC50 (JMJD7 inhibition, with 15 min preincubation)
[5] = 2 μM JMJD7, 10 μM peptide, 10 μM FAS, 100 μM LAA
[6] = 10 μM 2OG, 10 μM FAS, 100 μM LAA
[7] = 1.0 μM peptide, 50 nM JMJD7, SPE-MS time-course

T1 sequence (P0C870 whole entry, the tested form may be a part): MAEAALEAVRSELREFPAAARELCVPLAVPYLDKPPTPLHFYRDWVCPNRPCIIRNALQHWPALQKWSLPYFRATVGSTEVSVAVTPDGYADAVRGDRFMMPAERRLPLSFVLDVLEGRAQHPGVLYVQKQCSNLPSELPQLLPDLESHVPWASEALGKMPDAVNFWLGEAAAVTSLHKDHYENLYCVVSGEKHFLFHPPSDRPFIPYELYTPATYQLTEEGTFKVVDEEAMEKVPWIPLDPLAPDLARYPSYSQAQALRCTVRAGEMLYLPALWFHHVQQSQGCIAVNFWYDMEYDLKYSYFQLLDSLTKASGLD

CC(C)C[C@H](NC(=O)CNC(=O)[C@H](CC(C)C)NC(=O)[C@H](Cc1c[nH]cn1)NC(=O)[C@H](Cc1c[nH]cn1)NC(=O)[C@H](C)NC(=O)[C@@H](NC(=O)[C@H](C)NC(=O)[C@H](CCCC(N)=O)NC(=O)[C@H](CC(N)=O)NC(=O)[C@H](CCCCN)NC(=O)[C@H](CCC(N)=O)NC(=O)[C@@H](NC(=O)[C@H](CCCNC(=N)N)NC(=O)[C@H](C)N)[C@@H](C)O)[C@@H](C)O)C(=O)N[C@@H](CC(C)C)C(=O)N[C@@H](CCCCN)C(=O)N[C@@H](C)C(=O)N[C@@H](CCCNC(=N)N)C(=O)N[C@@H](CC(C)C)C(=O)N[C@@H](C)C(=O)N[C@@H](CCCCN)C(=O)N[C@@H](CC(C)C)C(=O)N[C@@H](CCCNC(=N)N)C(=O)N[C@@H](CCCNC(=N)N)C(N)=O [DRG1‐hGln] (H-ARTQKN[Aad](NH2)ATAHHLGLLKARLAKLRR-NH2)
IC50 (human JMJD7 [1]; [4]): 7680 nM

ARTQKNLysATAHHLGLLKARLAKLRR [DRG1‐Lys, 25-mer DRG1 fragment peptide (residues 16–40), C-terminal amide, Lys at position 22; JMJD7 substrate, reference compound]
hydroxylation within 9 min (human JMJD7 [2]; 1.0 μM peptide, 50 nM JMJD7, SPE-MS time-course, 9 min): ~ 90% | k cat/K m (human JMJD7 [2]): 155000 M⁻¹ s⁻¹ | k cat (human JMJD7 [2]): 13.0 ± 0.36 | K m (human JMJD7 [2]): 1.4 ± 0.59 | substrate inhibition of JMJD7 (human JMJD7 [2]; increased substrate concentrations, 100 nM JMJD7, 20 μM 2OG, 10 μM FAS, 100 μM LAA, pH 7.5): substrate inhibition of JMJD7 was observed | extent of hydroxylation by JMJD7 at higher 2OG concentration (human JMJD7 [3]; [5]): ~ 98% | extent of hydroxylation (+16 Da) by JMJD7 (human JMJD7 [3]; [6]): ~ 78%

CC(C)C[C@H](NC(=O)CNC(=O)[C@H](CC(C)C)NC(=O)[C@H](Cc1c[nH]cn1)NC(=O)[C@H](Cc1c[nH]cn1)NC(=O)[C@H](C)NC(=O)[C@@H](NC(=O)[C@H](C)NC(=O)[C@H](C[SeH])NC(=O)[C@H](CC(N)=O)NC(=O)[C@H](CCCCN)NC(=O)[C@H](CCC(N)=O)NC(=O)[C@@H](NC(=O)[C@H](CCCNC(=N)N)NC(=O)[C@H](C)N)[C@@H](C)O)[C@@H](C)O)C(=O)N[C@@H](CC(C)C)C(=O)N[C@@H](CCCCN)C(=O)N[C@@H](C)C(=O)N[C@@H](CCCNC(=N)N)C(=O)N[C@@H](CC(C)C)C(=O)N[C@@H](C)C(=O)N[C@@H](CCCCN)C(=O)N[C@@H](CC(C)C)C(=O)N[C@@H](CCCNC(=N)N)C(=O)N[C@@H](CCCNC(=N)N)C(N)=O [DRG1‐Sec] (H-ARTQKN[Sec]ATAHHLGLLKARLAKLRR-NH2)
IC50 (human JMJD7 [1]; [4]): 1460 nM | IC50 (human JMJD7 [1]; same assay conditions but without preincubation, read-out: IC50 (JMJD7 inhibition, without preincubation)): 2800 nM

ARTQKNMetATAHHLGLLKARLAKLRR [DRG1‐Met]
relative rate / turnover in the time-course (human JMJD7 [2]; [7]): turnover appeared to be low | degree of oxidation (+16 Da) of cysteine/methionine analog peptides by JMJD7 (human JMJD7 [3]; 2 μM JMJD7, 10 μM peptide, 10 μM 2OG, 10 μM FAS, 100 μM LAA): ~ 86%

ARTQKNLysEATAHHLGLLKARLAKLRR [DRG1‐LysE, 25-mer DRG1 (16–40) peptide with (E)-dehydrolysine at position 22]
k cat/K m (human JMJD7 [2]): 133000 M⁻¹ s⁻¹ | k cat (human JMJD7 [2]): 24.7 ± 0.36 | K m (human JMJD7 [2]): 3.1 ± 0.81 | extent of hydroxylation (+16 Da) by JMJD7 (human JMJD7 [3]; [6]): 90%

ARTQKNLysNATAHHLGLLKARLAKLRR [DRG1‐LysN, 25-mer DRG1 (16–40) peptide with γ-azalysine at position 22]
relative rate / turnover in the time-course (human JMJD7 [2]; [7]): oxidized more slowly than DRG1‐CysNH2 | fate of the JMJD7 C3-hydroxylation product (human JMJD7 [3]; standard conditions: 2 μM JMJD7, 10 μM peptide, 10 μM 2OG, 2 h): fragmentation to form DRG1‐formylglycine and its hydrated products

ARTQKNH[Nle]ATAHHLGLLKARLAKLRR [DRG1‐HNle, 25-mer DRG1 (16–40) peptide with hydroxynorleucine at position 22]
relative rate / turnover in the time-course (human JMJD7 [2]; [7]): turnover was low | extent of hydroxylation by JMJD7 at higher 2OG concentration (human JMJD7 [3]; [5]): ~ 56% | extent of hydroxylation (+16 Da) by JMJD7 (human JMJD7 [3]; [6]): ~ 24%
